Laboratory results as given in ChEMBL document CHEMBL4346703, “Structure Overhaul Affords a Potent Purine PI3Kδ Inhibitor with Improved Tolerability” (J Med Chem, 2019).
Blank lines part the entries; values can stand above or below the compound they belong to.

What was measured:
[1] = molecular target: T1, Phosphatidylinositol 4,5-bisphosphate 3-kinase catalytic subunit delta isoform (Homo sapiens, UniProt O00329); experiment: Inhibition of PI3Kdelta in human Ramos cells assessed as reduction in anti-IgM-antibody-induced phosphorylation of AKT at Ser473 residue preincubated for 20 mins followed by anti-IgM antibody stimulation and measured after 30 mins by alphascreen assay; assay type: cell-based
T1 sequence (O00329 whole entry): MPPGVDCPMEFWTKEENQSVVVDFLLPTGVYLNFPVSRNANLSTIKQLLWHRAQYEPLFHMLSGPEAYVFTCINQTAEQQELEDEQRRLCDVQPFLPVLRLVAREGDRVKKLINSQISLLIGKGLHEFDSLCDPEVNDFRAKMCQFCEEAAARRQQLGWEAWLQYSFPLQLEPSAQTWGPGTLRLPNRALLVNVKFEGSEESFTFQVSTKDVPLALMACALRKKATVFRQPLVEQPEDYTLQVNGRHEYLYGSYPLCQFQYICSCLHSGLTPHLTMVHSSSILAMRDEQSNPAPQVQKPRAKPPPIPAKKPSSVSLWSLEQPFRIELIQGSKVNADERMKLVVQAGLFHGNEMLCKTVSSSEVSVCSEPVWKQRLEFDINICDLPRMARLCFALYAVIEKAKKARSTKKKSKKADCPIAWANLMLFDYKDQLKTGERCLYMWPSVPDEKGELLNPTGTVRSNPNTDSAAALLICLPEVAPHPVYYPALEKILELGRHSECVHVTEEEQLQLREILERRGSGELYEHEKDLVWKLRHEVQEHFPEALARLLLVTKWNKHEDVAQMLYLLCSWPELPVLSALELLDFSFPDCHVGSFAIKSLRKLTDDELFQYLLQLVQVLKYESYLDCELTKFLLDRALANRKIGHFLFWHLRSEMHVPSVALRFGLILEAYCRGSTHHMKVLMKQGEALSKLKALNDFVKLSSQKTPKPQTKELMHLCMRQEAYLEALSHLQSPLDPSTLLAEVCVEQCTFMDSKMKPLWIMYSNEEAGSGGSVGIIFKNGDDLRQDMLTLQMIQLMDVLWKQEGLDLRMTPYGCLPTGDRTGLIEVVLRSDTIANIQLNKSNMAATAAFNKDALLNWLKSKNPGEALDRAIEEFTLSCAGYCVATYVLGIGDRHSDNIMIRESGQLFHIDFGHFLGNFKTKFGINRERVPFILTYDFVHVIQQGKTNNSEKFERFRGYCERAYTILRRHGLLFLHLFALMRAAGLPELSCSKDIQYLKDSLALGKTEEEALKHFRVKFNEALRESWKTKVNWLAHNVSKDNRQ

[2] = Inhibition of adenosine transporter in human HeLa cells assessed as reduction in [3H]adenosine uptake preincubated for 30 mins followed by [3H]adenosine addition and measured after 60 mins; assay type: ADME, cell-based
[3] = molecular target: PI3-kinase p110-alpha/p85-alpha (Homo sapiens, UniProt P42336); experiment: Inhibition of N-terminal His6-tagged recombinant full length human p110alpha/untagged recombinant full length human p85alpha expressed in baculovirus infected Sf21 insect cells using PIP2 as substrate preincubated for 15 mins followed by substrate addition and measured after 1 hr by HTRF assay
[4] = molecular target: PI3-kinase p110-delta/p85-alpha (Homo sapiens, UniProt O00329); experiment: Inhibition of N-terminal His6-tagged recombinant full length human p110delta/untagged recombinant full length human p85alpha expressed in baculovirus infected Sf21 insect cells using PIP2 as substrate preincubated for 15 mins followed by substrate addition and measured after 1 hr by HTRF assay
[5] = Lipophilicity, log D of the compound; assay type: physicochemical; conditions: octanol/water
[6] = Intrinsic clearance in Wistar Han rat at 0.05 mg/kg; assay type: ADME, organism-based; conditions: in vivo
[7] = Protein binding in Wistar Han rat plasma; assay type: ADME, cell-free; conditions: read-out: PPB (converted)
[8] = molecular target: T1, Phosphatidylinositol 4,5-bisphosphate 3-kinase catalytic subunit delta isoform; experiment: Inhibition of PI3Kdelta in human whole blood assessed as reduction in anti-CD79b antibody-induced CD69 expression preincubated for 60 mins followed by anti-CD79b antibody stimulation and measured after 3 hrs by FACS analysis; assay type: tissue-based
[9] = Unbound volume of distribution in Wistar Han rat; assay type: ADME; conditions: in vivo
[10] = Plasma clearance in Wistar Han rat at 0.05 mg/kg; assay type: ADME, organism-based
[11] = Protein binding in human plasma; assay type: ADME, cell-free; conditions: read-out: PPB (converted)
[12] = molecular target: T1, Phosphatidylinositol 4,5-bisphosphate 3-kinase catalytic subunit delta isoform; experiment: Inhibition of PI3Kdelta in human whole blood assessed as reduction in antihuman IgE antibody-stimulated CD63 expression preincubated for 30 mins followed by antihuman IgE antibody stimulation and measured after 20 mins by FACS analysis; assay type: tissue-based
[13] = Volume of distribution in Wistar Han rat; assay type: ADME; conditions: in vivo
[14] = Half-life in Wistar Han rat; assay type: ADME; conditions: in vivo
Phosphodiesterase 3 = Phosphodiesterase 3 (Homo sapiens, UniProt Q14432+Q13370); experiment: Inhibition of PDE3 (unknown origin); assay type: protein assay
Phosphodiesterase 4 = Phosphodiesterase 4 (Homo sapiens, UniProt P27815+Q08499+Q07343+Q08493); experiment: Inhibition of PDE4 (unknown origin); assay type: protein assay
[15] = molecular target: High affinity cGMP-specific 3',5'-cyclic phosphodiesterase 9A (Homo sapiens, UniProt O76083); experiment: Inhibition of PDE9 (unknown origin)
[16] = molecular target: cAMP and cAMP-inhibited cGMP 3',5'-cyclic phosphodiesterase 10A (Homo sapiens, UniProt Q9Y233); experiment: Inhibition of PDE10 (unknown origin)
[17] = Plasma clearance in Wistar Han rat at 0.5 mg/kg, iv or 1 mg/kg, po; assay type: ADME, organism-based
Phosphodiesterase 1 = Phosphodiesterase 1 (Homo sapiens, UniProt P54750+Q01064+Q14123); experiment: Inhibition of PDE1 (unknown origin); assay type: protein assay
[18] = molecular target: cGMP-specific 3',5'-cyclic phosphodiesterase (Homo sapiens, UniProt O76074); experiment: Inhibition of PDE5 (unknown origin)
[19] = molecular target: cGMP-dependent 3',5'-cyclic phosphodiesterase (Homo sapiens, UniProt O00408); experiment: Inhibition of PDE2 (unknown origin)
[20] = molecular target: High affinity cAMP-specific and IBMX-insensitive 3',5'-cyclic phosphodiesterase 8A (Homo sapiens, UniProt O60658); experiment: Inhibition of PDE8 (unknown origin)
[21] = molecular target: Dual 3',5'-cyclic-AMP and -GMP phosphodiesterase 11A (Homo sapiens, UniProt Q9HCR9); experiment: Inhibition of PDE11 (unknown origin)
Phosphodiesterase 7 = Phosphodiesterase 7 (Homo sapiens, UniProt Q13946+Q9NP56); experiment: Inhibition of PDE7 (unknown origin); assay type: protein assay
Phosphodiesterase 6 = experiment: Inhibition of PDE6 (unknown origin); assay type: protein assay, Homo sapiens

Sequence of PI3-kinase p110-alpha/p85-alpha (P27986 whole entry): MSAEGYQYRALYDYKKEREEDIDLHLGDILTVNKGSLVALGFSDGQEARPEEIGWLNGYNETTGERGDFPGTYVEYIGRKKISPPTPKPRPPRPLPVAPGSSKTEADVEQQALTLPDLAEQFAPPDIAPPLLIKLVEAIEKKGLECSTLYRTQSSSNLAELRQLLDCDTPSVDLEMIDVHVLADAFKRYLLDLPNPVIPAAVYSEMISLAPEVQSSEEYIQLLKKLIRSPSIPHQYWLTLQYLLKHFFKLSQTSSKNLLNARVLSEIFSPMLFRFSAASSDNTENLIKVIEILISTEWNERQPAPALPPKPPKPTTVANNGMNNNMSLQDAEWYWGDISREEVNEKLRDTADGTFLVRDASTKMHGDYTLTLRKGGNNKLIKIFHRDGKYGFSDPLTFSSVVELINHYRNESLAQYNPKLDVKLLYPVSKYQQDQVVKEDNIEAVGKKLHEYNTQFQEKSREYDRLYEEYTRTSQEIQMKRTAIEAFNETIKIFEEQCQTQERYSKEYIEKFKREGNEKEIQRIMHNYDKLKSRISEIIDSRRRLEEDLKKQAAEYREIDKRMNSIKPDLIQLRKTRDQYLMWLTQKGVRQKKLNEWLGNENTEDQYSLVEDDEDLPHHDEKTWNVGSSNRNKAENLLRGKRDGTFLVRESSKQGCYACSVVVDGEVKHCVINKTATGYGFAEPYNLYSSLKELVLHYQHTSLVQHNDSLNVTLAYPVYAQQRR
Sequence of PI3-kinase p110-alpha/p85-alpha (P42336 whole entry): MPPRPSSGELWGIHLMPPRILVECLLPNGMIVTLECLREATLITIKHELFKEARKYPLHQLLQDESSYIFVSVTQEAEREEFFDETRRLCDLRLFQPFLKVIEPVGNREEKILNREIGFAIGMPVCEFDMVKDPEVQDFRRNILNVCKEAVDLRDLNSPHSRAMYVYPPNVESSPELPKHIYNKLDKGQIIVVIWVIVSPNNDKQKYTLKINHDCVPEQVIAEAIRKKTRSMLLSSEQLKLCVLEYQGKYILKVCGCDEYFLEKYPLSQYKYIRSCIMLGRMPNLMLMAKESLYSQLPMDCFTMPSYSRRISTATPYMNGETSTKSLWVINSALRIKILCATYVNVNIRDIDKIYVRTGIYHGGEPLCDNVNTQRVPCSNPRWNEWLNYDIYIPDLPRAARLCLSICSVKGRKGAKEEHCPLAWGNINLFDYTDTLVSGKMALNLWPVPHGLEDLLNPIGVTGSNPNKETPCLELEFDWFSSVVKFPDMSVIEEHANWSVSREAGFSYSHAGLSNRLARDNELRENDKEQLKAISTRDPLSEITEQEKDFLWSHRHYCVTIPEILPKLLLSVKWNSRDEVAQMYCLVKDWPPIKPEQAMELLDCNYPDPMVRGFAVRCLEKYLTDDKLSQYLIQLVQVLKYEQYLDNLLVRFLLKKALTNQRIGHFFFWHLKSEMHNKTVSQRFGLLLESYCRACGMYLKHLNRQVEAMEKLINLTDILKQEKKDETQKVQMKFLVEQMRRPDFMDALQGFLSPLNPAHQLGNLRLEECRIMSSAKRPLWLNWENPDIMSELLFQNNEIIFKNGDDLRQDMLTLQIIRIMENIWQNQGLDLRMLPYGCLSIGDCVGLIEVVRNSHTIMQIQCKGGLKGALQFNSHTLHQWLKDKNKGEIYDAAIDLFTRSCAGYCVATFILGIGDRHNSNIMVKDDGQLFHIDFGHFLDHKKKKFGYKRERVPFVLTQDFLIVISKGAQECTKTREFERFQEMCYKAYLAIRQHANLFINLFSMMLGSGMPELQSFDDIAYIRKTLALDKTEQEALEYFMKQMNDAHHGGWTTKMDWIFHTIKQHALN
Sequence of PI3-kinase p110-delta/p85-alpha (P27986 whole entry, one chain of several): as the sequence (P27986 whole entry) above
Sequence of cAMP and cAMP-inhibited cGMP 3',5'-cyclic phosphodiesterase 10A (Q9Y233 whole entry): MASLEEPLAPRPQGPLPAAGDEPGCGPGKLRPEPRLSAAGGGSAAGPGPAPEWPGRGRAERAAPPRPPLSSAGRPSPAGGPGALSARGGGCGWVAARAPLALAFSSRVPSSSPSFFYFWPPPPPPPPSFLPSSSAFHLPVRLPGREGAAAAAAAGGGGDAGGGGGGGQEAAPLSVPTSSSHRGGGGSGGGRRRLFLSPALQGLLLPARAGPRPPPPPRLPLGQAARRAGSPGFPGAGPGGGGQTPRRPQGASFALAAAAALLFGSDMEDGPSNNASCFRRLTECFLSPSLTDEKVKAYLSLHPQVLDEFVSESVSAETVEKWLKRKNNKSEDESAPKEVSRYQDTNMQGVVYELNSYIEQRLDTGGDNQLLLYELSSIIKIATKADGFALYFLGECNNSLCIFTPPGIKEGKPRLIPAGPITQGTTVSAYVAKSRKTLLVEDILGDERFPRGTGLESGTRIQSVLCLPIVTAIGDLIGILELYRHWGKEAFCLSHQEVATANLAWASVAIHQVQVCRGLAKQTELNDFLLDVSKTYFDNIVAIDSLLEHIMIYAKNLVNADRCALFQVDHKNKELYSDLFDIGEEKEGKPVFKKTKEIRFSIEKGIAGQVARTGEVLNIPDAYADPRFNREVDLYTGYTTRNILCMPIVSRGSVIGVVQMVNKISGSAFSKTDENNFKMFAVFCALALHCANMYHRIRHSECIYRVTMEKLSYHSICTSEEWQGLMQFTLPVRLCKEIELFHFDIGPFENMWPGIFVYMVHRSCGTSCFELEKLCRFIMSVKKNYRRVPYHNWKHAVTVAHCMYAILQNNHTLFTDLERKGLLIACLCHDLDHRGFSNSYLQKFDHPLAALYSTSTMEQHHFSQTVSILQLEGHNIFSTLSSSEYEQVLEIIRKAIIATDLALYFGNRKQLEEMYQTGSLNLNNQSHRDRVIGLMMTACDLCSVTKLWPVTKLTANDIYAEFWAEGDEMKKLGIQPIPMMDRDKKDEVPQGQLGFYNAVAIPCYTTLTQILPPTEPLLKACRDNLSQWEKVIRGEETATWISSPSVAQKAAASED
Sequence of cGMP-dependent 3',5'-cyclic phosphodiesterase (O00408 whole entry): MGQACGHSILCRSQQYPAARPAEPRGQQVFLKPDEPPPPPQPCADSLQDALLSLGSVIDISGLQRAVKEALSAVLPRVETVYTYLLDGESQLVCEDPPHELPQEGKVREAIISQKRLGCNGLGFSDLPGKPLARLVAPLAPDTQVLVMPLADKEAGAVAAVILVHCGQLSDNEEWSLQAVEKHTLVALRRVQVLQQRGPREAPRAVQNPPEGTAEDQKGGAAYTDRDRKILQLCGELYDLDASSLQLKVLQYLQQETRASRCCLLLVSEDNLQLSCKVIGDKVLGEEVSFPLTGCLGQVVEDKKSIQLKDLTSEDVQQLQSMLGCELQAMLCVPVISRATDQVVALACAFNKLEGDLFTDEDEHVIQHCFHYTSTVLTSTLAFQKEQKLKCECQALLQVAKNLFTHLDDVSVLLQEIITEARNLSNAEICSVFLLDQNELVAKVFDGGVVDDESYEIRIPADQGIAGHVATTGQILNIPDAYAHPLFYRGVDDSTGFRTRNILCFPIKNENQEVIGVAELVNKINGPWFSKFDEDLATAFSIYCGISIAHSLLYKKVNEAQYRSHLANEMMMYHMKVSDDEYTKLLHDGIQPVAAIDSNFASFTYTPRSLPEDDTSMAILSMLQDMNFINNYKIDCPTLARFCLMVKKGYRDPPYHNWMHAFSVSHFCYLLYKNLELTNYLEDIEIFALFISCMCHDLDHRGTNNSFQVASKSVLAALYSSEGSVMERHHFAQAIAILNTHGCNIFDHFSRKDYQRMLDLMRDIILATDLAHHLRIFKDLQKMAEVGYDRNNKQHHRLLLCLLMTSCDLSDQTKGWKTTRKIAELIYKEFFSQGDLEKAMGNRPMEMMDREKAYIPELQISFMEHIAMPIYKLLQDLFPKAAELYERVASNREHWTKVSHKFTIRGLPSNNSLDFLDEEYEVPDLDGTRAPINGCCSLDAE
Sequence of Dual 3',5'-cyclic-AMP and -GMP phosphodiesterase 11A (Q9HCR9 whole entry): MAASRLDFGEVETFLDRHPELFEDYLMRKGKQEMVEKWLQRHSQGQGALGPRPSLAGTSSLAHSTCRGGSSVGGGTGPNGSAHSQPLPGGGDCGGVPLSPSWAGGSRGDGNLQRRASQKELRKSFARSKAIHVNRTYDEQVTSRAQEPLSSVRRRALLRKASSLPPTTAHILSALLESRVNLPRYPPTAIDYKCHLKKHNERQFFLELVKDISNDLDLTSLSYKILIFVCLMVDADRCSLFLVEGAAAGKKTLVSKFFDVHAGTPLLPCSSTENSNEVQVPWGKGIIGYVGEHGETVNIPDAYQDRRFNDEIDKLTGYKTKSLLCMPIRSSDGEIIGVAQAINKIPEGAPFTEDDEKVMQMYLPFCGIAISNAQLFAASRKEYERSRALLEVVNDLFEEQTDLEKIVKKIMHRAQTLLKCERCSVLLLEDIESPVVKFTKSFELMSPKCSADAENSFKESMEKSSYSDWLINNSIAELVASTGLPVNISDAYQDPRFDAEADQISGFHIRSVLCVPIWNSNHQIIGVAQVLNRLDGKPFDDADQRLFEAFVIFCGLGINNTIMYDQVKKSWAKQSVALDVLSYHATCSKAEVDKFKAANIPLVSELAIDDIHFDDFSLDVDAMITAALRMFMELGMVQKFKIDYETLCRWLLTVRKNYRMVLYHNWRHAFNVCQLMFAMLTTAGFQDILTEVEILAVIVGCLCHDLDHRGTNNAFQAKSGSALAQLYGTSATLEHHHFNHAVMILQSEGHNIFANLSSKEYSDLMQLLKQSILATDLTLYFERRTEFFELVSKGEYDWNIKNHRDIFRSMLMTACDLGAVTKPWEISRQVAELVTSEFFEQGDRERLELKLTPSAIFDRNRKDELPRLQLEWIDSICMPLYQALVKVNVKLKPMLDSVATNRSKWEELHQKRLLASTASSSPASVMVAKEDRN

IC50 [1]: 572 nM
IC50 [2]: 1400 nM
IC50 [3]: 597 nM
IC50 [4]: 15 nM
SMILES: CCn1ncc(-c2nc3c(S[C@H]4CCN(C(=O)C5CCOCC5)C4)ncnc3n2C)c1C

logD [5]: 1
IC50 [1]: 13 nM
CL [6]: 410 mL/min/kg
fraction unbound [7]: 0.28
IC50 [8]: 35 nM
Vdu [9]: 4 L/kg
clearance [10]: 49 mL/min/kg
IC50 [2]: 1590 nM
fraction unbound [11]: 0.45
IC50 [12]: 330 nM
Vd [13]: 1.1 L/kg
IC50 [3]: 35 nM
IC50 [4]: 0.9 nM
half-life [14]: 18 min
SMILES: CCn1ncc(-c2nc3c(N[C@H]4CCN(C(=O)C5CC5)C4)ncnc3n2C)c1C

IC50 [1]: 309 nM
IC50 [2]: 3910 nM
IC50 [3]: 338 nM
SMILES: CCC(=O)N1CCC[C@H](Nc2ncnc3c2nc(-c2cnn(CC)c2C)n3C)C1

IC50 [3]: 274 nM
SMILES: CC[C@H](Nc1ncnc2c1nc(-c1cnn(CC)c1C)n2C)C(=O)N1CCOCC1

IC50 [1]: 45 nM
IC50 [2]: 2250 nM
IC50 [3]: 121 nM
IC50 [4]: 4.3 nM
SMILES: CCn1ncc(-c2nc3c(NC4CC(=O)N(CC(C)C)C4)ncnc3n2C)c1C (stereo unspecified)

IC50 (Phosphodiesterase 3): > 20000 nM
IC50 (Phosphodiesterase 4): > 20000 nM
logD [5]: 0.8
IC50 [1]: 16 nM
IC50 [15]: > 20000 nM
IC50 [16]: > 20000 nM
clearance [17]: 95 mL/min/kg
IC50 (Phosphodiesterase 1): > 20000 nM
fraction unbound [7]: 0.52
Vdu [9]: 3 L/kg
clearance [10]: 95 mL/min/kg
IC50 [2]: 9190 nM
IC50 [18]: > 20000 nM
IC50 [19]: > 20000 nM
Vd [13]: 1.7 L/kg
IC50 [3]: 35 nM
IC50 [20]: > 20000 nM
IC50 [4]: 0.5 nM
half-life [14]: 12 min
IC50 [21]: > 20000 nM
IC50 (Phosphodiesterase 7): > 20000 nM
IC50 (Phosphodiesterase 6): > 20000 nM
SMILES: CCn1ncc(-c2nc3c(N[C@H]4CCN(C(=O)C5CCOCC5)C4)ncnc3n2C)c1C

More lines, now with the values behind:

SMILES: CCn1ncc(-c2nc3c(N[C@H]4CC[C@@H](C(=O)N5CCOCC5)C4)ncnc3n2C)c1C
IC50 [1]: 153 nM
IC50 [2]: 5520 nM
IC50 [3]: 90 nM
IC50 [4]: 11 nM

SMILES: CCn1ncc(-c2nc3c(N[C@@H](C)C(=O)N4CCOCC4)ncnc3n2C)c1C
IC50 [1]: 719 nM
IC50 [2]: 6550 nM
IC50 [3]: 406 nM
IC50 [4]: 24 nM

SMILES: CCn1ncc(-c2nc3c(CC4CCN(C(=O)C5CCOCC5)C4)ncnc3n2C)c1C (racemic)
IC50 [1]: 8330 nM
IC50 [2]: > 10000 nM
IC50 [3]: > 10000 nM
IC50 [4]: 294 nM

SMILES: CCC(=O)N1CC[C@@H](Nc2ncnc3c2nc(-c2cnn(CC)c2C)n3C)C1
IC50 [1]: 187 nM
IC50 [2]: > 1000 nM
IC50 [3]: 540 nM
IC50 [4]: 26 nM

SMILES: CCC(=O)N1CC[C@H](Nc2ncnc3c2nc(-c2cnn(CC)c2C)n3C)C1
IC50 (Phosphodiesterase 3): > 20000 nM
IC50 (Phosphodiesterase 4): 8400 nM
logD [5]: 0.8
IC50 [1]: 24 nM
CL [6]: 370 mL/min/kg
IC50 [15]: > 20000 nM
IC50 [16]: > 20000 nM
IC50 (Phosphodiesterase 1): > 20000 nM
fraction unbound [7]: 0.49
Vdu [9]: 4 L/kg
clearance [10]: 58 mL/min/kg
IC50 [2]: 7250 nM
IC50 [18]: > 20000 nM
IC50 [19]: > 20000 nM
Vd [13]: 1.8 L/kg
IC50 [3]: 94 nM
IC50 [20]: > 20000 nM
IC50 [4]: 1.6 nM
half-life [14]: 24 min
IC50 [21]: > 20000 nM
IC50 (Phosphodiesterase 7): > 20000 nM
IC50 (Phosphodiesterase 6): > 20000 nM
